Assays:
Assay in all cases: relative viability (nuclei count vs DMSO), 5 days (fraction); higher = more cells survive
[1] = test system: SK-MES-1
Summary of the method: (§1)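 Values are medians from duplicate plates. Each reflects relative viability, defined as the nuclei count of treated wells over that of vehicle wells. Lung cancer cell lines in 1536-well plates were pin-tool dosed one day after seeding with one drug alone or with a fixed anchor-drug dose plus five library-drug doses (not always all listed) in √10 steps, then fixed, stained and imaged at 4× after 5 days.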

[2] = test system: EKVX
Summary of the method: as §1

[3] = test system: CAL-12T
Summary of the method: as §1

[4] = test system: NCI-H2228
Summary of the method: as §1

[5] = test system: H3255
Summary of the method: as §1

[6] = test system: ABC-1
Summary of the method: as §1

[7] = test system: NCI-H460
Summary of the method: as §1

[8] = test system: NCI-H2085
Summary of the method: as §1

[9] = test system: NCI-H322M
Summary of the method: as §1

[10] = test system: NCI-H2342
Summary of the method: as §1

[11] = test system: HCC-366
Summary of the method: as §1

[12] = test system: EPLC-272H
Summary of the method: as §1

[13] = test system: NCI-H2087
Summary of the method: as §1

[14] = test system: NCI-H441
Summary of the method: as §1

[15] = test system: ChaGo-K-1
Summary of the method: as §1

[16] = test system: COR-L 105
Summary of the method: as §1

[17] = test system: NCI-H1975
Summary of the method: as §1

[18] = test system: HCC-827
Summary of the method: as §1

[19] = test system: NCI-H2009
Summary of the method: as §1

[20] = test system: NCI-H1355
Summary of the method: as §1

[21] = test system: NCI-H1993
Summary of the method: as §1

## CCNC(=O)c1noc(-c2cc(C(C)C)c(O)cc2O)c1-c1ccc(CN2CCOCC2)cc1 [Luminespib] + Cc1cc(Nc2cc(N3CCN(C)CC3)nc(Sc3ccc(NC(=O)C4CC4)cc3)n2)n[nH]1 [Tozasertib] (partner 0.1 µM)
[1]; first compound 0.002 µM
  relative viability: 0.822
[1]; first compound 0.006325 µM
  relative viability: 0.849
[1]; first compound 0.02 µM
  relative viability: 1.01
[1]; first compound 0.06325 µM
  relative viability: 0.144
[1]; first compound 0.2 µM
  relative viability: 0.159
[2]; first compound 0.002 µM
  relative viability: 0.436
[2]; first compound 0.006325 µM
  relative viability: 0.389
[2]; first compound 0.06325 µM
  relative viability: 0.346
[2]; first compound 0.2 µM
  relative viability: 0.165
[3]; first compound 0.002 µM
  relative viability: 0.361
[3]; first compound 0.006325 µM
  relative viability: 0.319
[3]; first compound 0.02 µM
  relative viability: 0.211
[3]; first compound 0.06325 µM
  relative viability: 0.113
[3]; first compound 0.2 µM
  relative viability: 0.107
[4]; first compound 0.002 µM
  relative viability: 0.353
[4]; first compound 0.006325 µM
  relative viability: 0.274
[4]; first compound 0.02 µM
  relative viability: 0.139
[4]; first compound 0.06325 µM
  relative viability: 0.101
[4]; first compound 0.2 µM
  relative viability: 0.136
[5]; first compound 0.002 µM
  relative viability: 0.7
[5]; first compound 0.006325 µM
  relative viability: 0.69
[5]; first compound 0.06325 µM
  relative viability: 0.7
[5]; first compound 0.2 µM
  relative viability: 0.25
[6]; first compound 0.002 µM
  relative viability: 0.196
[6]; first compound 0.006325 µM
  relative viability: 0.21
[6]; first compound 0.02 µM
  relative viability: 0.139
[6]; first compound 0.06325 µM
  relative viability: 0.173
[6]; first compound 0.2 µM
  relative viability: 0.14
[7]; first compound 0.002 µM
  relative viability: 0.554
[7]; first compound 0.006325 µM
  relative viability: 0.421
[7]; first compound 0.02 µM
  relative viability: 0.597
[7]; first compound 0.06325 µM
  relative viability: 0.0212
[7]; first compound 0.2 µM
  relative viability: 0.0218
[8]; first compound 0.002 µM
  relative viability: 0.804
[8]; first compound 0.006325 µM
  relative viability: 0.749
[8]; first compound 0.02 µM
  relative viability: 0.758
[8]; first compound 0.06325 µM
  relative viability: 0.879
[8]; first compound 0.2 µM
  relative viability: 0.607
[9]; first compound 0.002 µM
  relative viability: 0.423
[9]; first compound 0.006325 µM
  relative viability: 0.458
[9]; first compound 0.02 µM
  relative viability: 0.422
[9]; first compound 0.06325 µM
  relative viability: 0.331
[9]; first compound 0.2 µM
  relative viability: 0.301
[10]; first compound 0.002 µM
  relative viability: 0.578
[10]; first compound 0.006325 µM
  relative viability: 0.576
[10]; first compound 0.02 µM
  relative viability: 0.361
[10]; first compound 0.06325 µM
  relative viability: 0.589
[10]; first compound 0.2 µM
  relative viability: 0.334
[11]; first compound 0.002 µM
  relative viability: 0.13
[11]; first compound 0.006325 µM
  relative viability: 0.105
[11]; first compound 0.02 µM
  relative viability: 0.108
[11]; first compound 0.06325 µM
  relative viability: 0.228
[11]; first compound 0.2 µM
  relative viability: 0.0502
[12]; first compound 0.002 µM
  relative viability: 0.282
[12]; first compound 0.006325 µM
  relative viability: 0.296
[12]; first compound 0.06325 µM
  relative viability: 0.399
[12]; first compound 0.2 µM
  relative viability: 0.22
[13]; first compound 0.002 µM
  relative viability: 0.26
[13]; first compound 0.006325 µM
  relative viability: 0.29
[13]; first compound 0.02 µM
  relative viability: 0.243
[13]; first compound 0.06325 µM
  relative viability: 0.113
[13]; first compound 0.2 µM
  relative viability: 0.0985
[14]; first compound 0.002 µM
  relative viability: 0.671
[14]; first compound 0.006325 µM
  relative viability: 0.507
[14]; first compound 0.02 µM
  relative viability: 0.647
[14]; first compound 0.06325 µM
  relative viability: 0.186
[14]; first compound 0.2 µM
  relative viability: 0.148
[15]; first compound 0.002 µM
  relative viability: 0.23
[15]; first compound 0.006325 µM
  relative viability: 0.228
[15]; first compound 0.02 µM
  relative viability: 0.159
[15]; first compound 0.06325 µM
  relative viability: 0.186
[15]; first compound 0.2 µM
  relative viability: 0.201
[16]; first compound 0.002 µM
  relative viability: 0.37
[16]; first compound 0.006325 µM
  relative viability: 0.385
[16]; first compound 0.02 µM
  relative viability: 0.232
[16]; first compound 0.06325 µM
  relative viability: 0.465
[16]; first compound 0.2 µM
  relative viability: 0.191
[17]; first compound 0.002 µM
  relative viability: 0.759
[17]; first compound 0.006325 µM
  relative viability: 0.745
[17]; first compound 0.02 µM
  relative viability: 0.603
[17]; first compound 0.06325 µM
  relative viability: 0.1
[17]; first compound 0.2 µM
  relative viability: 0.093
[18]; first compound 0.002 µM
  relative viability: 0.425
[18]; first compound 0.006325 µM
  relative viability: 0.465
[18]; first compound 0.02 µM
  relative viability: 0.398
[18]; first compound 0.06325 µM
  relative viability: 0.41
[18]; first compound 0.2 µM
  relative viability: 0.193
[19]; first compound 0.002 µM
  relative viability: 0.766
[19]; first compound 0.006325 µM
  relative viability: 0.746
[19]; first compound 0.02 µM
  relative viability: 0.798
[19]; first compound 0.06325 µM
  relative viability: 0.28
[19]; first compound 0.2 µM
  relative viability: 0.114
[20]; first compound 0.002 µM
  relative viability: 0.518
[20]; first compound 0.006325 µM
  relative viability: 0.577
[20]; first compound 0.02 µM
  relative viability: 0.421
[20]; first compound 0.06325 µM
  relative viability: 0.618
[20]; first compound 0.2 µM
  relative viability: 0.226
[21]; first compound 0.002 µM
  relative viability: 0.539
[21]; first compound 0.006325 µM
  relative viability: 0.6
[21]; first compound 0.02 µM
  relative viability: 0.533
[21]; first compound 0.06325 µM
  relative viability: 0.5
[21]; first compound 0.2 µM
  relative viability: 0.437

Source: the supplement of paper PMC10307832
